This is an account of results in article PMC6470738, “Characterization of the High-Affinity Drug Ligand Binding Site of Mouse Recombinant TSPO” (International Journal of Molecular Sciences, 2019).

In data set [1] the test system is TSPO A147T (polymorphism rs6971). To be noted: human polymorphism rs6971; cited from earlier work.
The target in data set [2] is TSPO Wild-type. The arrangement: method as in Farges et al. (1994). To be noted: yeast mitochondria, ref Farges et al. (1994), read-out: PK 11195 Kd; cited from earlier work.
The subject of data set [3] is TSPO R103A. The arrangement: method as in PMID 7808437. The following applies: cited from earlier work.
For data set [4], the target named is T1, rec-mTSPO WT (Mus musculus, UniProt P50637).
T1 construct: His tag; made in house; host or cells: E. coli BL21 DE3
The data set is described as follows: [3H]-PK 11195 saturation binding to rec-mTSPO reconstituted in proteoliposomes. The protocol: (§1) SDS-solubilized mTSPO was reincorporated in proteoliposomes by mixing with SDS solubilized lipids (dimyristoyl phosphatidyl choline/dimyristoyl phosphatidyl ethanolamine, 9:1) at a lipid to protein ratio of 5 (w/w). The detergent was removed using Bio-Beads SM2 according to published protocols. Reconstitution was followed by combining the fluorescence and optical changes as previously described.
(§2) Proteoliposomes containing recombinant mTSPO were incubated with various concentrations of [^3H]-PK 11195 (SA, 83.5 Ci/mmol, Perkin Elmer SAS, Courtaboeuf, France) in phosphate buffer saline (PBS). The bound ligand was quantified by liquid scintillation spectrometry after filtration on Whatman Filters GF/C (Sigma-Aldrich, Saint Quentin Fallavier, France) according to published protocols. The Kd and Bmax values were determined by fitting the saturation curves with the following equation Ligand bound = (Bmax × Ligand)/(Kd + Ligand).

In data set [5] the test system is TSPO R32G. The arrangement: method as in PMID 7808437. To be noted: cited from earlier work.
Data set [6] deals with WT and mutants of TSPO reconstituted in liposomes. Briefly: [3H]-PK 11195 saturation binding to rec-mTSPO reconstituted in proteoliposomes, all constructs. The arrangement: species or system mouse. To be noted: all stoichiometries obtained. The protocol: as §1, §2
Data set [7] relates to mammalian TSPO ∆141-152. Details: method as in Li et al. (1998). To be noted: bacterial protoplast, control = wild type, ref Li et al. (1998); cited from earlier work.
Data set [8] deals with mammalian TSPO ∆5-20. Details: method as in Li et al. (1998). The following applies: bacterial protoplast, control = wild type, ref Li et al. (1998); cited from earlier work.
Data set [9] deals with TSPO V26T. The arrangement: method as in PMID 7808437. To be noted: cited from earlier work.
The target in data set [10] is TSPO ∆156-169. The arrangement: method as in Farges et al. (1994). The following applies: yeast mitochondria, ref Farges et al. (1994), read-out: PK 11195 Kd; cited from earlier work.
In data set [11] the target is T2, rec-mTSPO (Mus musculus, UniProt P50637).
T2 construct: His tag; made in house; host or cells: E. coli BL21 DE3
Briefly: Limited trypsin digestion of rec-mTSPO solubilized in DPC. To be noted: DPC 0.1%, 30 °C, TSPO:trypsin 30:1; 100 µM PK 11195 and increasing concentrations.
Description: Proteolysis was performed by mixing rec-mTSPO (0.2 mg/mL) solubilized in DPC (0.1%) and a phosphate buffer (10 mM at pH 7.0) with protease at a TSPO:Trypsin ratio of 30:1 (w/w).

Data set [12] addresses TSPO ∆157-169. The arrangement: method as in Farges et al. (1994). To be noted: yeast mitochondria, ref Farges et al. (1994), read-out: PK 11195 Kd; cited from earlier work.
For data set [13], the system named is TSPO W42 mutation. Details: method as in PMID 7808437. The following applies: cited from earlier work.
Data set [14] addresses TSPO ∆2-20,158-169. Details: method as in Farges et al. (1994). To be noted: yeast mitochondria, ref Farges et al. (1994), read-out: PK 11195 Kd; cited from earlier work.
Data set [15] addresses TSPO ∆158-159. Details: method as in Farges et al. (1994). To be noted: yeast mitochondria, ref Farges et al. (1994), read-out: PK 11195 Kd; cited from earlier work.
Data set [16] concerns TSPO K39G. The arrangement: method as in PMID 7808437. To be noted: cited from earlier work.
Data set [17] relates to TSPO W47 mutation. The arrangement: method as in PMID 7808437. To be noted: cited from earlier work.
For data set [18], the target named is T2, rec-mTSPO. Briefly: Circular dichroism of rec-mTSPO in DPC with PK 11195. To be noted: increasing amounts of PK 11195, high ligand over protein molar ratios.
Description: Far UV circular dichroism spectra were recorded on a Jobin-Yvon CD6 spectropolarimeter operated at room temperature according to published protocols [19, 25, 45]. Briefly, a detergent solubilized mTSPO sample (5 µM) in a 10 mM sodium phosphate buffer solution was placed in a 0.2 mm path length quartz cuvette (Hellma, Paris, France). The CD spectra were recorded in the 185 to 270 nm wavelength range with a 0.2 nm step resolution, 1 s signal averaging time and 1 nm bandwidth. The spectra were averaged over five scans, corrected for background and smoothed over 25 points. A consensus secondary structure content was estimated by spectral deconvolution using CONTINLL, CDSSTR and Selcon software and datasets of reference proteins SMP50 (37 soluble proteins and 13 membrane proteins) and SP37 (37 soluble proteins) [46], as well as CDFriend.
Data set [19] deals with TSPO2. The arrangement: method as in PMID 19729679. The following applies: paralogous TSPO2; cited from earlier work.
The subject of data set [20] is human TSPO ∆15-35. To be noted: cited from earlier work.
The test system of data set [21] is mammalian TSPO ∆120-133. The arrangement: method as in Li et al. (1998). The following applies: bacterial protoplast, control = wild type, ref Li et al. (1998); cited from earlier work.
For data set [22], the system named is mammalian TSPO ∆108-119. The arrangement: method as in Li et al. (1998). To be noted: bacterial protoplast, control = wild type, ref Li et al. (1998); cited from earlier work.
The target in data set [23] is T3, rec-mTSPO Y34F (Mus musculus, UniProt P50637, Y34F).
T3 construct: His tag; made in house; host or cells: E. coli
Briefly: [3H]-PK 11195 saturation binding to rec-mTSPO reconstituted in proteoliposomes. How it is done: (§3) Mutations were performed using the QuikChange Site-Directed Mutagenesis kit (Stratagene, France) according to published protocols. In brief, miniprep pET-PBR plasmid double-strand DNA was used as a template. Synthetic oligonucleotide primer pairs containing a point mutation or deletion, each complementary to the opposing strand of the vector, were extended during temperature cycling by pfu DNA polymerase. The nicked vector DNAs containing the desired mutations were then transfected into E. coli.
as §1, §2

In data set [24] the target is T4, rec-mTSPO Δ41–51 (Mus musculus, UniProt P50637, DEL41-51).
T4 construct: His tag; made in house; host or cells: E. coli
The description is as above. To be noted: Δ41–50 as printed in Table 1. How it is done:
as §3, §1, §2

Data set [25] addresses T5, rec-mTSPO Y34F/F100A (Mus musculus, UniProt P50637, F100A/Y34F).
T5 construct: His tag; made in house; host or cells: E. coli
Described as above. The protocol: as §3, §1, §2

For data set [26], the target named is T6, rec-mTSPO Y34S (Mus musculus, UniProt P50637, Y34S).
T6 construct: His tag; made in house; host or cells: E. coli
Described as above. The protocol: as §3, §1, §2

Data set [27] deals with T7, rec-mTSPO Y34F/F99A (Mus musculus, UniProt P50637, F99A/Y34F).
T7 construct: His tag; made in house; host or cells: E. coli
The data set is described as above. The protocol:
as §3, §1, §2

Data set [28] has as its target T8, rec-mTSPO ΔC-ter (153–169) (Mus musculus, UniProt P50637).
T8 construct: His tag; made in house; host or cells: E. coli
The data set is described as above. How it is done: as §3, §1, §2

The target of data set [29] is T9, rec-mTSPO F100A (Mus musculus, UniProt P50637, F100A).
T9 construct: His tag; made in house; host or cells: E. coli
The description is as above. How it is done:
as §3, §1, §2

Data set [30] concerns the target T2, rec-mTSPO. To be noted: cited from earlier work.
Data set [31] deals with mammalian TSPO ∆41-51. Details: method as in Li et al. (1998). The following applies: bacterial protoplast, control = wild type, ref Li et al. (1998); cited from earlier work.
The target of data set [32] is TSPO ∆2-20. The arrangement: method as in Farges et al. (1994). To be noted: yeast mitochondria, ref Farges et al. (1994), read-out: PK 11195 Kd; cited from earlier work.
The test system of data set [33] is mammalian TSPO ∆153-169. Details: method as in Li et al. (1998). The following applies: bacterial protoplast, control = wild type, ref Li et al. (1998); cited from earlier work.

Where “and” joins values, the source holds several entries; their conditions need not be identical. Equal values may be shown once. Entries after “also recorded” stand apart in the source; their conditions may differ. Read-outs that look alike come from different tables or passages of the source.

On to `COc1ccccc1CN(C(C)=O)c1cnccc1Oc1ccccc1` [PBR28], for which, in [1], the “decrease of the affinity due to A147T polymorphism” value is given as “one or two orders of magnitude”.

For `CCC(C)N(C)C(=O)c1cc2ccccc2c(-c2ccccc2Cl)n1` (centres unmarked) [PK 11195, N-butan-2-yl-1-(2-chlorophenyl)-N-methylisoquinoline-3-carboxamide], the Kd in data set [2] is 0.006 ± 0.003 µM; in data set [4] (proteoliposomes, fit of saturation curve), 0.008 ± 0.003 µM; in data set [10], 0.01 ± 0.004 µM; in data set [12], 0.009 ± 0.003 µM; in data set [14], greater than 0.2 µM; in [15] it was 0.01 ± 0.006 µM. The Kd in [20] (∆15-35, yeast mitochondria, ref Farges et al. (1994), read-out: PK 11195 Kd) was greater than 0.2 µM; in data set [23], 0.02 ± 0.003 µM; in data set [24], 0.02 ± 0.008 µM; in [25] (Y34F/F100A, proteoliposomes), 0.15 ± 0.02 µM; in data set [26], 0.04 ± 0.007 µM; in data set [27] (Y34F/F99A, proteoliposomes), 0.15 ± 0.02 µM. Also, the equilibrium dissociation constant (Kd) in [28] is 0.02 ± 0.005 µM; in data set [29] it was 0.02 ± 0.005 µM; in data set [32], 0.025 ± 0.008 µM. Further, the “effect of mutation on PK 11195 binding” value in data set [3] is reported as “no effect”; in [5] it was “no effect”; in data set [9] it was “complete loss of PK 11195 binding”; in data set [13], “no effect”; in data set [16], “no effect”; in data set [17] it was “no effect”. In addition, the Bmax in data set [4] (stoichiometry, nmol PK 11195 bound per mg recombinant TSPO) stood at 25 ± 3 nmol/mg; in data set [23], 27 ± 3 nmol/mg; in data set [24] it was 25 ± 8 nmol/mg; in [25] (Y34F/F100A, proteoliposomes), 25 ± 10 nmol/mg; in data set [26], 25 ± 5 nmol/mg; in data set [27] (Y34F/F99A, proteoliposomes), 25 ± 10 nmol/mg. The Bmax is 30 ± 10 nmol/mg in data set [28] and 25 ± 7 nmol/mg in data set [29]. Further, the “stoichiometry (Bmax)” value in [6] was 25–30 nmol of PK 11195 bound per mg of recombinant TSPO. The “PK 11195 binding % of control” value was ~ 75 % of control in data set [7]; ~ 70 % of control in data set [8]; ~ 55 % of control in [21]; ~ 70 % of control in data set [22]; ~ 55 % of control and 55 % of control in data set [31]; ~ 75 % of control and 75 % of control in [33]. In data set [11], the “effect on proteolytic cleavage of rec-mTSPO by trypsin” value is given as “protected against cleavage”. For the same compound, the “effect of A147T polymorphism on affinity” value in data set [1] is “no effect”. For the same compound, the “effect on CD spectrum of rec-mTSPO” value in data set [18] was “increasing changes in the CD spectrum”. In data set [19], the “binding to TSPO2” value is listed as “not binding”. Further, the “effect of deletion on PK 11195 binding” value in [20] (Δ15–35 of human TSPO overexpressed in yeast) is reported as “complete loss of PK 11195 binding; also recorded: loses its binding capacity”. In addition, the “decrease in affinity for PK 11195 compared with WT” value in data set [25] (Y34F/F100A vs WT) and in data set [27] (Y34F/F99A vs WT) was 20 fold in each case. The figures for the “PK 11195 binding in detergent” value in data set [30] (SDS-solubilized rec-mTSPO) and in data set [30] (rec-mTSPO in the presence of DPC) were “no PK 11195 binding” and “observed”, respectively. Moreover, in [30] (detergent-solubilized, additional interaction between PK 11195 and detergent), the “affinity with detergent-solubilized rec-mTSPO” value was “micro-millimolar range”.
